Data: patent publication EP4752142A1, “5-HT2A RECEPTOR AGONIST, AND PREPARATION METHOD THEREFOR AND USE THEREOF” (Innovstone Therapeutics Limited, priority 2023, dated 2025)
Like-named read-outs stand apart in the source and are kept apart here.

Key:
5-HT2A receptor [1] = molecular target: T1, 5-HT2A receptor (Homo sapiens, UniProt P28223); test: 5-HT2AR calcium flux activation assay; type: cell-based; parameters: expressed in transfected cells; host or cells: HEK293; conditions: for Emax: Max Dose 100000 nM
T1 sequence (P28223 whole entry): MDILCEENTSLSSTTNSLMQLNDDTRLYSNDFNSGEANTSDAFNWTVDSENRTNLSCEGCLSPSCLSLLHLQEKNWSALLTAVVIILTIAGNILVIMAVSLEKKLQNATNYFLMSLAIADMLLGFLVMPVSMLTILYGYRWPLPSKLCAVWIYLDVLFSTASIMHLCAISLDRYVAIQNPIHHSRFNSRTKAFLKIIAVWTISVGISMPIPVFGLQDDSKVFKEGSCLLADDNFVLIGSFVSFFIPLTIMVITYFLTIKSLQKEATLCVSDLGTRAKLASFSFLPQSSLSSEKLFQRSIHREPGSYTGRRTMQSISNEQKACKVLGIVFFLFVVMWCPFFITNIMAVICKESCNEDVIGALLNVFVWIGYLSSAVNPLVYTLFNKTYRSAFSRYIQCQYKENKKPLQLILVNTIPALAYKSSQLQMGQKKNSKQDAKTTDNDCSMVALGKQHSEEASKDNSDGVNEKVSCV
Method: • 1) For cultured cells (HEK293 cells stably expressing human 5-HT2A receptor), they were first washed twice with pre-warmed DPBS, then an appropriate amount of trypsin was added for digestion at 37°C for 1 minute; an appropriate amount of the culture medium was then added to stop digestion, and 1 mL was taken for counting and vitality determination using Vi-CELL™. • 2) Cells were centrifuged at 1000 rpm for 5 minutes. • 3) The supernatant was gently discarded, being careful not to disturb the cell pellet. • 4) Cells were diluted with the culture medium to 1×10^6 cells/mL (20,000 cells/20 µL) and seeded into 384-well poly-lysine coated cell plates. They were cultured at 37°C under 5% CO2 for 16-20 hours.
• 1) Preparation of 250 mM Probenecid solution: According to the kit instructions, 77 mg of probenecid was added to 1 mL of FLIPR buffer salt solution. Prepared fresh for immediate use. • 2) Preparation of Fluo-4 Direct™ (2×, 8 µM) loading buffer: According to the kit instructions, the required amount of Fluo-4 Direct™ was thawed in advance. 10 mL of FLIPR buffer salt solution and 0.2 mL of 250 mM Probenecid solution were added to each vial. It was vortexed in the dark for >5 minutes. Prepared fresh for immediate use.
• 1) Preparation of control and test compound plates: Compounds were gradient diluted to 10 points using Echo, and 750 nL was transferred to the corresponding compound plate. • 2) 30 µL of assay buffer salt solution was added to the corresponding compound plate, which was then centrifuged at 1000 rpm for 1 minute; • 3) The cell plate prepared the day before was taken from the incubator, and 20 µL of 2× Fluo-4 Direct™ buffer was added to each well, making a total volume of 40 µL. • 4) The plate was incubated in a 5% CO2, 37°C incubator for 50 minutes, then left at room temperature for 10 minutes. • 5) The compound plate, the cell plate, and pipette tips were placed into the instrument; • 6) The FLIPR instrument software was run according to the set program, adding 10 µL of the specified concentrations of test compounds and control compounds to the cell plate, and fluorescence signals were read. After reading, data was exported using the "Max-Min", "Read 1 to 90" method in the software. • 7) Data analysis: Agonist Activation% = (RLU−DMSO)/(HC−DMSO)*100 [formula] • RLU: Relative Light Units, read values 1 to 90; • HC: Average fluorescence signal of the highest concentration point of the agonist; • DMSO: Average fluorescence signal of the DMSO group; • 8) Data was fitted using Prism 5.0.
For agonist: EC50 was fitted using "log(agonist) vs. response -- Variable slope". Table 2: 5-HT2AR Calcium Flux Activation Assay

5-HT2A receptor [2] = molecular target: T1, 5-HT2A receptor; test: 5-HT2A receptor isotope competition affinity assay; type: binding
Method: A radiolabeled ligand (agonist or antagonist) incubated with receptor protein could form a receptor-ligand complex. An added test compound could compete with the isotopically labeled ligand for the receptor binding, eventually forming a relative steady-state equilibrium. The affinity of the test compound for the receptor was indirectly evaluated by measuring the dissociation of the isotopically labeled ligand from the receptor.
A 100x serial gradient dilution of compounds was prepared in DMSO, starting from 1 mM with 4-fold serial dilutions, resulting in 10 concentration points. Using a pipettor, 1 µL of each gradient concentration of the test compound (final concentration starting at 10 µM, 4-fold serial dilutions, 10 concentration points) was transferred to a 96-well assay plate, to each well of which 49 µL of 5-HT2A receptor protein (102 µg/mL, prepared in an assay buffer: 50 mM Tris-HCl, pH 7.4) had been added in advance (final concentration 5 µg/well). This was followed by the addition of 50 µL of isotopically labeled [^3H]-Ketanserin (2 nM, 2× final concentration, prepared in the assay buffer). The plate was sealed and incubated on a shaker at room temperature for 1 hour. The reaction mixture was filtered through a Unifilter-96 GF/C filter plate pre-treated with 0.3% PEI. The filter plate was washed with a precooled (4°C) assay buffer and then dried in an incubator at 50°C. A scintillation liquid was added, and the plate was read using a MicroBeta2 instrument. The percentage inhibition was calculated using the equation: %Inhibition=(CountHigh Signal Control-CountSample)/(CountHigh Signal Control-CountLow Signal Control)*100. A four-parameter logistic fit was used to calculate the IC50 value. High Signal Control: No compound group (the same volume of DMSO substituted). Low Signal Control: Ketanserin group (non-isotopically labeled, 2× final concentration). Table 1: Results of 5-HT2A receptor isotope competition affinity assay, Ki Values

Mice (strain C57BL/6) [3] = test: Head-twitch response test in mice; type: in vivo; conditions: reflects hallucinogenic effect, Figure 1
Method: (§1) • 1. Assay conditions and materials: • 1.1 Animal source: Mice (strain C57BL/6, purchased from Shanghai Lingchang Biotechnology Co., Ltd., 8-9 weeks old, 20-24 grams, male) • 1.2 Conditions: Temperature (20-25°C), relative humidity (40-70%), light cycle (12-hour light cycle (7:00-19:00)), free access to food and water • 1.3 Marking: Animals were marked on the tail. • 2. Assay procedure:
• A) Adaptation: Starting from the second day after the animals arrived, they were conciliated by stroking and acclimated for seven consecutive days to reduce their stress response. • B) Grouping: One hour before the assay test, animals were placed in the testing room for adaptation. On the test day, animals were randomly grouped according to body weight. Each group contained 12 animals. • C) Assay Dosing: Animal body weight was measured, and compounds were administered according to the group, with a dosing volume of 10 mL/kg for all. • D) Testing: After dosing, animals were placed in transparent observation chambers, and head-twitch behaviors were recorded over 60 minutes. • E) Assay test indicator: Total number of head-twitches within 60 minutes after dosing.

Mice (strain C57BL/6) [4] = test: Forced swim test in naive mice 7 days after single administration; type: in vivo; conditions: compared to vehicle control group, p<0.05, Figure 2
Method: as §1
• A) Adaptation: Starting from the second day after the animals arrived, they were conciliated by stroking and acclimated for seven consecutive days to reduce their stress response. • B) Behavioral test (FST test): Compound and Psilocybin groups (15 animals per group) continued to be housed for 7 days after dosing. On day 7, the Ketamine group (15 animals per group) was dosed 30 minutes before being placed, together with the compound and Psilocybin groups, into forced swim observation chambers for 6 minutes. Immobility time during the last 4 minutes was calculated. • C) Assay test indicator: Immobility time of animals during 2-6 minutes of the forced swim test.

[5] = HEK293 cells stably expressing human 5-HT2A receptor, FLIPR, Fluo-4, read-out: EC50
[6] = HEK293 cells stably expressing human 5-HT2A receptor
[7] = competition with [3H]-Ketanserin, 1 hour, room temperature, read-out: 5-HT2A receptor/Ki

Row | SMILES | EC50 (5-HT2A receptor [1]; [5]) [nM] | Emax (5-HT2A receptor [1]; [6]) [%] | Ki (5-HT2A receptor [2]; [7]) [nM] | further results
1 | Cc1nn(CCCN2CCC(c3c[nH]c4cccc(O)c34)C2)nc1C (racemic) [Compound 127] | 3.94 | 53.4 |  | 
2 | COc1ccccc1CCCN1CCC(c2c[nH]c3cccc(O)c23)C1 (stereo not shown) [Compound 2] | 16.9 | 51.5 | < 100 | 
3 | c1ccc2c(C3CCN(CCCc4ncon4)C3)c[nH]c2c1 (stereo not shown) [Compound 49, 3-(1-[3-(1,2,4-oxadiazol-3-yl)propyl]pyrrolidin-3-yl)-1H-indole] | 34 | 47.6 | < 100 | Total number of head-twitches within 60 minutes after dosing (Mice (strain C57BL/6) [3]; dose 30 mpk): did not cause significant head-twitch behavior
4 | Cc1nonc1CCCN1CCC(c2c[nH]c3ccccc23)C1 (stereo not shown) [Compound 54, 3-(1-(3-(4-methyl-1,2,5-oxadiazol-3-yl)propyl)pyrrolidin-3-yl)-1H-indole] | 86.5 | 46.7 | < 100 | 
5 | Oc1cccc2[nH]cc(C3CCN(CCCc4ncsn4)C3)c12 (stereo not shown) [Compound 56] | 8.6 | 67.7 | < 100 | 
6 | Cn1cc(CCCN2CCC(c3c[nH]c4cccc(O)c34)C2)cn1 (stereo not shown) [Compound 60] | 33.3 | 29.9 | < 100 | 
7 | Cc1nc(C)n(CCCN2CCC(c3c[nH]c4ccccc34)C2)n1 (stereo not shown) [Compound 122, 3-(1-(3-(3,5-dimethyl-1H-1,2,4-triazol-1-yl)propyl)pyrrolidin-3-yl)-1H-indole] | 24.8 | 38.6 | < 100 | 
8 | c1ccc2c(C3CCN(CCCn4nccn4)C3)c[nH]c2c1 (stereo not shown) [Compound 125, 3-(1-(3-(2H-1,2,3-triazol-2-yl)propyl)pyrrolidin-3-yl)-1H-indole] | 23.1 | 62.9 | < 100 | 
9 | Cc1cnn(CCCN2CCC(c3c[nH]c4ccccc34)C2)n1 (stereo not shown) [Compound 126] | 27.7 | 49.7 |  | 
10 | CC(C)c1cnn(CCCN2CCC(c3c[nH]c4cccc(O)c34)C2)n1 (stereo not shown) [Compound 128] | 7.09 | 63.1 |  | 
11 | Oc1cccc2[nH]cc(C3CCN(CCc4coc5ccccc45)C3)c12 (stereo not shown) [Compound 134] | 43.3 | 68.8 | < 100 | 
12 | c1ccc2c(C3CCN(CCc4nnc5ccccn45)C3)c[nH]c2c1 (stereo not shown) [Compound 142, 3-(1-(2-((1,2,4)triazolo(4,3-a)pyridin-3-yl)ethyl)pyrrolidin-3-yl)-1H-indole] |  | 41.9 |  | Ki (5-HT2A receptor [2]): < 100 nM; EC50 (5-HT2A receptor [1]): 45.9 nM
13 | c1ccc2c([C@H]3CCN(CCCc4ncon4)C3)c[nH]c2c1 [Compound 171, (R)-3-(1-[3-(1,2,4-oxadiazol-3-yl)propyl]pyrrolidin-3-yl)-1H-indole] | 63.5 | 40.2 |  | 
14 | Oc1cccc2[nH]cc(C3CCN(CCCn4nccn4)C3)c12 (stereo not shown) [Compound 180, 3-(1-(3-(2H-1,2,3-triazol-2-yl)propyl)pyrrolidin-3-yl)-1H-indol-4-ol] | 9.95 | 59.3 | < 100 | Total number of head-twitches within 60 minutes after dosing (Mice (strain C57BL/6) [3]; dose 30 mpk): did not cause significant head-twitch behavior; Immobility time of animals during 2-6 minutes of the forced swim test (Mice (strain C57BL/6) [4]): significantly reduced immobility time
15 | Oc1cccc2[nH]cc([C@@H]3CCN(CCCn4nccn4)C3)c12 [Compound 182, (S)-3-(1-(3-(2H-1,2,3-triazol-2-yl)propyl)pyrrolidin-3-yl)-1H-indol-4-ol] | 21.1 | 57.4 | < 100 | Total number of head-twitches within 60 minutes after dosing (Mice (strain C57BL/6) [3]; dose 30 mpk): did not cause significant head-twitch behavior
16 | Oc1cc(F)cc2[nH]cc(C3CCN(CCCn4nccn4)C3)c12 (stereo not shown) [Compound 184, 6-fluoro-3-(1-[3-(2H-1,2,3-triazol-2-yl)propyl]pyrrolidin-3-yl)-1H-indol-4-ol] |  | 52.4 |  | Ki (5-HT2A receptor [2]): < 100 nM; EC50 (5-HT2A receptor [1]): 8.72 nM
17 | Cc1nn(CCCN2CC[C@@H](c3c[nH]c4cccc(O)c34)C2)nc1C [Compound 186, (S)-3-(1-(3-(4,5-dimethyl-2H-1,2,3-triazol-2-yl)propyl)pyrrolidin-3-yl)-1H-indol-4-ol] |  |  | < 100 | 
18 | Cc1cnn(CCCN2CCC(c3c[nH]c4cccc(O)c34)C2)n1 (stereo not shown) [Compound 187, 3-(1-(3-(4-methyl-2H-1,2,3-triazol-2-yl)propyl)pyrrolidin-3-yl)-1H-indol-4-ol] | 4.17 | 63.7 | < 100 | 
19 | Oc1cccc2[nH]cc(C3CCN(CCCn4ncc(C5CC5)n4)C3)c12 (stereo not shown) [Compound 188, 3-(1-(3-(4-cyclopropyl-2H-1,2,3-triazol-2-yl)propyl)pyrrolidin-3-yl)-1H-indol-4-ol] |  | 48.5 |  | Ki (5-HT2A receptor [2]): < 100 nM; EC50 (5-HT2A receptor [1]): 10.7 nM
20 | c1ccc2c(C3CCN(CCCn4nccn4)C3)n[nH]c2c1 (stereo not shown) [Compound 189, 3-(1-(3-(2H-1,2,3-triazol-2-yl)propyl)pyrrolidin-3-yl)-1H-indazole] |  |  | < 100 | 
21 | COc1cc(CC(C)N)c(OC)cc1I (stereo not shown) [DOI, reference compound] |  |  |  | Total number of head-twitches within 60 minutes after dosing (Mice (strain C57BL/6) [3]; dose 3 mpk): significant head-twitch behavior
22 | Cc1cc(CCN2CCC(c3c[nH]c4cccc(F)c34)CC2)n[nH]1 [reference compound] | > 100000 | 0.9 |  | 
23 | c1ccc2c(C3CCN(CCCn4nccn4)CC3)c[nH]c2c1 [reference compound] | > 100000 | 25.5 |  | 
